# Measured values taken from patent publication US4107299A, “Cardioactive 12-epi-digoxin and derivatives thereof” (Boehringer Mannheim GmbH, priority 1975, dated 1978).
# Like-named read-outs stand apart in the source and are kept apart here.
# Tested on: insulated, electrically stimulated left atrium of the guinea pig
# Experiment: Therapeutic effect and therapeutic spectrum at the insulated, electrically stimulated left atrium of the guinea pig
# Type: cell-based
# Settings: mean and average deviation; for EC50 / Emax: Cavia porcellus; for Emax: in percentage of the decrease of the amplitude by reduction of the calcium content (1.8 to 0.45 mVal), read-out: Contraction Amplitude maximum increase (%); for Contraction Amplitude maximum increase: maximum contraction amplitude with increasing glycoside concentrations, calcium reduced from 1.8 to 0.45 mVal, 31° C, 3 Hz; for therapeutic spectrum: quotient EC50 decrease/EC50 increase
# Procedure: Comparison of the therapeutic spectrum of various cardioactive glycosides was undertaken, employing electrical stimulation of the insulated left atrium of guinea pigs. Specifically, the left atrium was suspended in Tyrode solution at 31° C and electrically stimulated by a frequency of 3 Hz with rectangular impulses of 2 m sec. duration and optimum tension. The maximum contraction strength was registered semi-isometrically.
# When a constant contraction amplitude has set in, the calcium concentration was reduced from 1.8 to 0.45 mVal. The initial tension was adjusted to 1 g at the start of the test; if necessary, it was adjusted after the readjustment to a solution poor in calcium, however, no longer changed during the further course of the experiment.
# Of the glycosides to be tested, stock solutions were prepared in dimethyl acetamide and, for the test with NaCl-solution so diluted that the stated end concentrations were obtained with the addition of 0.1 ml to a bath volume of 80 ml. It was determined in preliminary tests that up to 0.4 ml undiluted dimethyl acetamide were tolerated without influencing the contractility.
# If, after reduction of the calcium concnetration, a constant degree of contraction was again obtained after approximately 10 minutes, concentrations of the glycoside to be tested were added in the ratio 1 + 1 + 2 + 4, etc. The period between the individual additions was 15 minutes.
# Prior to the change-over to a calcium-poor Tyrode solution and prior to each addition of glycoside, as well as 15 minutes after the last dose, the prestress was measured in grams and the contraction amplitude in mg. The difference of the amplitude was calculated from the test values for the contraction amplitude after reduction of the calcium content. The difference between the contraction amplitude before and after the change-over to a calcium-poor solution was put as equal to 100% amplitude reduction.
# It was determined for each individual atrium when, with administration of increasing concentrations of the glycosides, there was obtained
# the maximum contraction amplitude ("maximum increase");
# increase of the amplitude to 50% of the difference between normal and reduced calcium content ("EC50 increase");
# decrease of the contraction amplitude to the same height ("EC50 decrease");
# the therapeutic spectrum quotient of the two EC50, i.e. EC50 decrease/EC50 increase.
# With these evaluation processes, there are obtained numerical data for the concentration and the period during which the corresponding effect was observed. In order to obtain a uniform basis for the evaluation, differences in the time of the appearance were converted into concentrations according to the following method:
# The logarithm of the concentration was graphically plotted against the time in such manner that the lowest concentration was put at 15 minutes, the next higher one at 30 minutes, etc. The evaluation of the tests yielded the time after the start of the test at which the respective effect had appeared. The concentration pertaining to it was read from the diagram.
# This procedure is based on the assumption that the concentration increases exponentially at the place of the effect. De facto this assumption is more correct than a regular increase in concentration in stages in the bath liquid since there is a substantial time lapse between the increase of the concentration in the bath and in the tissue.
# In addition, the maximum degree of […] was measured in all tests under the influence of the glycosides and in percentage of the decrease of the amplitude by reduction of the calcium content.
# [1] = decrease of the contraction amplitude to the same height (50%) at higher concentrations, read-out: EC50 decrease
# [2] = increase of the amplitude to 50% of the difference between normal and reduced calcium content, read-out: EC50 increase
Compound,EC50 [1] [µM],Emax [%],EC50 [2] [µM],Contraction Amplitude maximum increase [mg],therapeutic spectrum
"C[C@H]1O[C@@H](O[C@H]2[C@@H](O)C[C@H](O[C@H]3[C@@H](O)C[C@H](O[C@H]4CC[C@@]5(C)[C@H](CC[C@@H]6[C@@H]5C[C@H](O)[C@]5(C)[C@@H](C7=CC(=O)OC7)CC[C@]65O)C4)O[C@@H]3C)O[C@@H]2C)C[C@H](O)[C@@H]1O [Example 1, 12-Epi-digoxin]",2.48 ± 0.3,92 ± 6.5,0.557 ± 0.07,746 ± 56,4.49±0.35
"CO[C@H]1[C@@H](O)C[C@H](O[C@H]2[C@@H](O)C[C@H](O[C@H]3[C@@H](O)C[C@H](O[C@H]4CC[C@@]5(C)[C@H](CC[C@@H]6[C@@H]5C[C@H](O)[C@]5(C)[C@@H](C7=CC(=O)OC7)CC[C@]65O)C4)O[C@@H]3C)O[C@@H]2C)O[C@@H]1C [Example 2, 12-Epi-β-methyldigoxin]",2.78 ± 0.4,96 ± 6.3,0.315 ± 0.02,666 ± 78,8.86±1.17
"CC(=O)O[C@H]1C[C@H](O[C@H]2[C@@H](O)C[C@H](O[C@H]3[C@@H](O)C[C@H](O[C@H]4CC[C@@]5(C)[C@H](CC[C@@H]6[C@@H]5C[C@H](O)[C@]5(C)[C@@H](C7=CC(=O)OC7)CC[C@]65O)C4)O[C@@H]3C)O[C@@H]2C)O[C@H](C)[C@H]1O [Example 5, α-Acetyl-12-epi-digoxin]",2.78 ± 0.28,,0.848 ± 0.09,,3.40±0.40
"CC(=O)O[C@H]1[C@@H](O)C[C@H](O[C@H]2[C@@H](O)C[C@H](O[C@H]3[C@@H](O)C[C@H](O[C@H]4CC[C@@]5(C)[C@H](CC[C@@H]6[C@@H]5C[C@H](O)[C@]5(C)[C@@H](C7=CC(=O)OC7)CC[C@]65O)C4)O[C@@H]3C)O[C@@H]2C)O[C@@H]1C [Example 6, β-Acetyl-12-epi-digoxin]",3.76 ± 0.25,,0.921 ± 0.07,,4.25±0.51
"CC(=O)O[C@H]1C[C@H]2[C@@H](CC[C@@H]3C[C@@H](O[C@H]4C[C@H](O)[C@H](O[C@H]5C[C@H](O)[C@H](O[C@H]6C[C@H](O)[C@H](O)[C@@H](C)O6)[C@@H](C)O5)[C@@H](C)O4)CC[C@@]32C)[C@@]2(O)CC[C@H](C3=CC(=O)OC3)[C@@]12C [Example 7, 12-Acetyl-12-epi-digoxin]",13.8 ± 0.81,,2.86 ± 0.31,,5.15±0.71
"CCC1=C([C@H]2CC[C@]3(O)[C@@H]4CC[C@@H]5C[C@@H](O[C@H]6C[C@H](O)[C@H](O[C@H]7C[C@H](O)[C@H](O[C@H]8C[C@H](O)[C@H](O)[C@@H](C)O8)[C@@H](C)O7)[C@@H](C)O6)CC[C@]5(C)[C@H]4C[C@H](O)[C@]23C)COC1=O [Example 9, 22-Ethyl-12-epi-digoxin]",39.3 ± 3,,6.63 ± 0.75,,6.39±0.96
"CO[C@H]1[C@@H](O)C[C@H](O[C@H]2[C@@H](O)C[C@H](O[C@H]3[C@@H](O)C[C@H](O[C@H]4CC[C@@]5(C)[C@H](CC[C@@H]6[C@@H]5C[C@H](O)[C@]5(C)[C@@H](C7=C(C)C(=O)OC7)CC[C@]65O)C4)O[C@@H]3C)O[C@@H]2C)O[C@@H]1C [Example 12, 22-Methyl-12-epi-β-methyldigoxin]",17 ± 1.7,,3.55 ± 0.41,,5.15±0.59
"CCC1=C([C@H]2CC[C@]3(O)[C@@H]4CC[C@@H]5C[C@@H](O[C@H]6C[C@H](O)[C@H](O[C@H]7C[C@H](O)[C@H](O[C@H]8C[C@H](O)[C@H](OC)[C@@H](C)O8)[C@@H](C)O7)[C@@H](C)O6)CC[C@]5(C)[C@H]4C[C@H](O)[C@]23C)COC1=O [Example 13, 22-Ethyl-12-epi-β-methyldigoxin]",40.5 ± 2.6,,5.9 ± 0.48,,7.10±0.74
"CO[C@H]1[C@@H](O)C[C@H](O[C@H]2[C@@H](O)C[C@H](O[C@H]3[C@@H](O)C[C@H](O[C@H]4CC[C@@]5(C)[C@H](CC[C@@H]6[C@@H]5C[C@H](O)[C@]5(C)[C@@H](C7=C(C(C)C)C(=O)OC7)CC[C@]65O)C4)O[C@@H]3C)O[C@@H]2C)O[C@@H]1C [Example 14, 22-Isopropyl-12-epi-β-methyldigoxin]",61.9 ± 5.2,,21.6 ± 1.9,,3.08±0.45
"CO[C@H]1[C@@H](O)C[C@H](O[C@H]2[C@@H](O)C[C@H](O[C@H]3[C@@H](O)C[C@H](O[C@H]4CC[C@@]5(C)[C@H](CC[C@@H]6[C@@H]5C[C@H](OC(C)=O)[C@]5(C)[C@@H](C7=CC(=O)OC7)CC[C@]65O)C4)O[C@@H]3C)O[C@@H]2C)O[C@@H]1C [Example 18, 12-Acetyl-12-epi-β-methyldigoxin]",25.6 ± 2.9,,4.71 ± 0.81,,6.50±1.5
"C#CCC1=C([C@H]2CC[C@]3(O)[C@@H]4CC[C@@H]5C[C@@H](O[C@H]6C[C@H](O)[C@H](O[C@H]7C[C@H](O)[C@H](O[C@H]8C[C@H](O)[C@H](OC)[C@@H](C)O8)[C@@H](C)O7)[C@@H](C)O6)CC[C@]5(C)[C@H]4C[C@H](O)[C@]23C)COC1=O [Example 26, 22-Propargyl-12-epi-β-methyldigoxin]",14.6 ± 1.4,,4.46 ± 0.75,,3.94±1.0
"CO[C@H]1[C@@H](O)C[C@H](O[C@H]2[C@@H](O)C[C@H](O[C@H]3[C@@H](O)C[C@H](O[C@H]4CC[C@@]5(C)[C@H](CC[C@@H]6[C@@H]5C[C@@H](O)[C@]5(C)[C@@H](C7=CC(=O)OC7)CC[C@]65O)C4)O[C@@H]3C)O[C@@H]2C)O[C@@H]1C [methyldigoxina., β-methyldigoxin, reference compound]",0.66 ± 0.04,75 ± 5,0.23 ± 0.03,292 ± 56,3.06±0.36
